Measurements published in patent US10694752B2 (priority 2016, dated 2020).
Where “and” joins values, the source holds several entries; their conditions need not be identical. Identical values can stand only once.

Tests used:
[1] = test system: wild type Chlorella sorokiniana; assay: Growth of wild type Chlorella sorokiniana in the presence of propiconazole (OD at 750 nm); type: cell-based; settings: 10 μM propiconazole; FIG. 1
Experimental: (§1) Chlorella sorokiniana cells (Wild type) and propiconazole resistant mutants of Chlorella species (PcZ-2) were inoculated at 0.1-0.15 OD@750 nm (each set in triplicates). To verify the effect of methanol (propiconazole was dissolved in methanol), one set was treated with 0.1% methanol. One set of flasks in triplicate of Wild type and PcZ-2 mutants were inoculated with and without 10 μM propiconazole. After inoculation flasks were kept in 12 h light/12 hour dark cycles of white light in an incubator shaker at 100 rpm. The temperature was 28° C., 70% humidity and 2% ambient CO2. 3 mL sample was removed each day, to determine the Optical density (OD) of the culture at 750 nm. The results obtained are as illustrated in FIG. 1.
(§2) FIG. 1 illustrates a graph of the growth comparison between wild type Chlorella sorokiniana and propiconazole resistant Chlorella sorokiniana mutant PcZ-2, in the presence of propiconazole, wherein A represents wild type Chlorella sorokiniana in the absence of propiconazole, B represents wild type Chlorella sorokiniana grown in the presence of 0.1% methanol, C represents wild type Chlorella sorokiniana grown in the presence of 10 μM propiconazole, D represents PcZ-2 grown in the absence of propiconazole, E represents PcZ-2 grown in the presence of 0.1% methanol, and F represents PcZ-2 grown in the presence of 10 μM propiconazole.

[2] = test system: propiconazole resistant Chlorella sorokiniana mutant PcZ-2 (CCAP 211/134); assay: Growth of propiconazole resistant mutant PcZ-2 in the presence of propiconazole (OD at 750 nm); type: cell-based; settings: 10 μM propiconazole; for Average % increase PcZ-2 + 10 uM PcZ: average of triplicates, compared with wild type without propiconazole; for % increase PcZ-2 + 10 μM PcZ: growth of PcZ-2 compared with wild type without propiconazole, individual replicates, 28° C., listed as PcZ
Experimental: as §1, §2

With `CCCC1COC(Cn2cncn2)(c2ccc(Cl)cc2Cl)O1` (centres unmarked) [propiconazole, Propiconazole] the “growth of wild type Chlorella sorokiniana culture in the presence of propiconazole” value [1] was “crashes after a few days”, the “growth of PcZ-2 in the presence of propiconazole” value ([2]; FIG. 1) was “capable of growing” and the “Average % increase PcZ-2 + 10 uM PcZ” value ([2]; day 4) was 62.66%. The “% increase PcZ-2 + 10 μM PcZ” value ([2]; day 4) was 52.73% and 66.67% and 68.57%, the “Average % increase PcZ-2 + 10 uM PcZ” value ([2]; day 6) was 20.01% and the “% increase PcZ-2 + 10 μM PcZ” value ([2]; day 6) was 13.33% and 28.96% and 17.75%. The “Average % increase PcZ-2 + 10 uM PcZ” value ([2]; day 7) was 21.07% and the “% increase PcZ-2 + 10 μM PcZ” value ([2]; day 7) was 10.64% and 29.37% and 23.19%.
